Source: ChEMBL document CHEMBL1201862, “PubChem BioAssay data set” (2004)
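The compound was tested at five concentrations on cells cultured in 96-well plates, with a 48-hour exposure period. GI50 marks 50% less growth.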 Activity calls are given as the source filed them. Cut-off read from the data, not from the text of the source: active = GI50 up to about 1.1 µM and inactive = higher.

Key:
Assay in all cases: NCI tumour cell line growth inhibition, 48 h
ACHN = tested on: ACHN
OVCAR-3 = tested on: OVCAR-3
SK-MEL-2 = tested on: SK-MEL-2
NCI/ADR-RES = tested on: NCI/ADR-RES
HOP-62 = tested on: HOP-62
M14 = tested on: M14
PC-3 = tested on: PC-3
UO-31 = tested on: UO-31
SNB-75 = tested on: SNB-75
DU-145 = tested on: DU-145
IGROV-1 = tested on: IGROV-1
CAKI-1 = tested on: CAKI-1
T47D = tested on: T47D
U-251 = tested on: U-251
HCT-116 = tested on: HCT-116
COLO 205 = tested on: COLO 205
MDA-N = tested on: MDA-N
SF-268 = tested on: SF-268
CCRF-CEM = tested on: CCRF-CEM
HCC 2998 = tested on: HCC 2998

Measured: GI50

O=c1[nH]c2cc([N+](=O)[O-])c(N/N=C/c3ccc(Cl)cc3Cl)c([N+](=O)[O-])c2[nH]1
inactive: ACHN 39.8 µM | OVCAR-3 17.4 µM | SK-MEL-2 > 100 µM | NCI/ADR-RES 15.5 µM | HOP-62 59.6 µM | M14 > 100 µM | PC-3 > 100 µM | UO-31 41.6 µM | SNB-75 > 100 µM | DU-145 51.9 µM | IGROV-1 25.1 µM | CAKI-1 > 100 µM | T47D > 100 µM | U-251 34.4 µM | HCT-116 25.7 µM | COLO 205 > 100 µM | MDA-N 7.48 µM | SF-268 75.3 µM | CCRF-CEM 23.8 µM

Cn1c(N/N=C/c2ccccc2)nc(-c2ccc([N+](=O)[O-])cc2)c(C#N)c1=O
inactive: ACHN > 100 µM | OVCAR-3 20.5 µM | SK-MEL-2 34.4 µM | NCI/ADR-RES 86.3 µM | HOP-62 77.8 µM | M14 > 100 µM | PC-3 59.6 µM | UO-31 43.6 µM | SNB-75 88.5 µM | DU-145 34.7 µM | IGROV-1 49.3 µM | CAKI-1 54.5 µM | T47D 97.9 µM | U-251 66.1 µM | HCT-116 27.6 µM | COLO 205 44.2 µM | MDA-N 89.3 µM | SF-268 39.7 µM | CCRF-CEM 26 µM

CC(C)(C)OC(=O)N1C(OP(=O)(Oc2ccccc2)Oc2ccccc2)=COc2cccnc21
inactive: ACHN 29.9 µM | OVCAR-3 72.3 µM | SK-MEL-2 22.3 µM | NCI/ADR-RES 40.7 µM | HOP-62 60.5 µM | M14 37.1 µM | PC-3 84.5 µM | UO-31 42.9 µM | SNB-75 33.3 µM | DU-145 > 100 µM | IGROV-1 42.6 µM | CAKI-1 40.3 µM | T47D 23 µM | U-251 40.5 µM | HCT-116 51.2 µM | COLO 205 34.8 µM | MDA-N 36.3 µM | HCC 2998 42.1 µM | SF-268 63.2 µM

COc1cc(=O)oc(/C=C/C=C/C=C/C(C)=C\C2(C)OC(C)C(C)(O)C2O)c1C (stereo not given)
inactive: ACHN > 100 µM | OVCAR-3 > 100 µM | SK-MEL-2 > 100 µM | NCI/ADR-RES > 100 µM | HOP-62 > 100 µM | M14 > 100 µM | PC-3 > 100 µM | UO-31 > 100 µM | SNB-75 68.7 µM | DU-145 > 100 µM | IGROV-1 > 100 µM | CAKI-1 > 100 µM | T47D > 100 µM | U-251 > 100 µM | HCT-116 > 100 µM | COLO 205 > 100 µM | MDA-N > 100 µM | SF-268 > 100 µM | CCRF-CEM > 100 µM

COC(=O)C1=C(CCCCO[Si](C)(C)C(C)(C)C)NC(=O)N2[C@H](CCOCc3ccccc3)CC[C@@H]12
inactive: ACHN > 100 µM | OVCAR-3 29.4 µM | SK-MEL-2 75.3 µM | NCI/ADR-RES 32.7 µM | HOP-62 > 100 µM | M14 58.3 µM | PC-3 26.9 µM | UO-31 43.9 µM | SNB-75 43.7 µM | DU-145 75.2 µM | CAKI-1 34 µM | T47D 35.4 µM | U-251 23.7 µM | HCT-116 24 µM | COLO 205 27.9 µM | MDA-N 55.3 µM | HCC 2998 > 100 µM | SF-268 > 100 µM

CCCCCCCCCc1nn2c(Cc3ccccc3)nnc2s1
inactive: ACHN 20 µM | OVCAR-3 17.2 µM | SK-MEL-2 19.8 µM | NCI/ADR-RES 16.7 µM | HOP-62 19.9 µM | M14 20.8 µM | PC-3 22.1 µM | UO-31 13.1 µM | SNB-75 26.4 µM | DU-145 22.4 µM | CAKI-1 30.3 µM | T47D 24.7 µM | U-251 18.7 µM | HCT-116 18 µM | COLO 205 17.5 µM | MDA-N 20.6 µM | SF-268 16.7 µM

CC1(C)CCC[C@]2(C)[C@@H]1CC[C@@]13O[C@@H]1C1=C(CO)C(=O)O[C@]14O[C@@H]4[C@@H]23
inactive: ACHN 14.3 µM | OVCAR-3 13.2 µM | SK-MEL-2 13.9 µM | NCI/ADR-RES 14.9 µM | HOP-62 17.8 µM | M14 10.8 µM | PC-3 9.1 µM | UO-31 6.05 µM | SNB-75 15.2 µM | DU-145 14.3 µM | IGROV-1 13.3 µM | CAKI-1 12.8 µM | T47D 22 µM | U-251 13.8 µM | HCT-116 12.4 µM | COLO 205 17.7 µM | MDA-N 5.78 µM | HCC 2998 19.2 µM | SF-268 15 µM
